# Measurements taken from ChEMBL document CHEMBL6153025, “Multidrug-resistant bacteria quorum-sensing inhibitors: A particular focus on Pseudomonasaeruginosa” (Eur J Med Chem, 2025).
# What was measured:
# Pseudomonas aeruginosa [1] = assay: Anti-virulence effect in Pseudomonas aeruginosa PAO1 assessed as inhibition of rhamnolipid production at 10 uM relative to control; format: functional; parameters: scale not given: the % may be the effect or the level left
# [2] = target: T1, Transcriptional activator protein LasR (Pseudomonas aeruginosa (strain ATCC 15692 / PAO1 / 1C / PRS 101 / LMG12228)) (UniProt P25084); assay: Inhibition of LasR-mediated quorum sensing system in Pseudomonas aeruginosa PAO1 at 128 ug/ml relative to control; conditions: dose 128.0 µg/ml
# T1 sequence (whole entry): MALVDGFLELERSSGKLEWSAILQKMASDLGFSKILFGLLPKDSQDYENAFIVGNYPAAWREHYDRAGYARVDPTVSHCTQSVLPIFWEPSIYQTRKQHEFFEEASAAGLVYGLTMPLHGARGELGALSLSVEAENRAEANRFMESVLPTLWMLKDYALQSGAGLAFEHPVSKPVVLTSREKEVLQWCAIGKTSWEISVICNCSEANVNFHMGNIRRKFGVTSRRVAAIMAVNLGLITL
# Pseudomonas aeruginosa [3] = assay: Anti-virulence activity against Pseudomonas aeruginosa PAO1-L assessed as reduction in pyocyanin production at 10 uM incubated for 24 hrs by absorbance based analysis relative to control; format: functional; parameters: scale not given: the % may be the effect or the level left
# [4] = Inhibition of quorum sensing system in Pseudomonas aeruginosa PAO1 expressing lasB-gfp
# Escherichia coli = assay: Antibacterial activity against Escherichia coli; format: functional
# Pseudomonas aeruginosa [5] = assay: Antivirulence activity against Pseudomonas aeruginosa PAO1 assessed as reduction in pyocyanin level at 10 uM relative to control; format: functional; parameters: scale not given: the % may be the effect or the level left
# Pseudomonas aeruginosa [6] = assay: Antibacterial activity against Pseudomonas aeruginosa; format: functional
# Bacillus pumilus = assay: Antibacterial activity against Bacillus pumilus; format: functional
# Staphylococcus aureus = assay: Antibacterial activity against Methicillin-sensitive Staphylococcus aureus; format: functional
# Bacillus subtilis = assay: Antibacterial activity against Bacillus subtilis; format: functional
# Pseudomonas aeruginosa [7] = assay: Antibacterial activity against Pseudomonas aeruginosa ATCC 15442 assessed as reduction in bacterial cell growth incubated for 24 hrs by two fold serial microdilution method; format: functional
# Pseudomonas aeruginosa [8] = assay: Antibacterial activity against Pseudomonas aeruginosa ATCC 27853 assessed as bacterial growth inhibition by agar diffusion assay; format: functional
# Pseudomonas aeruginosa [9] = assay: Antibiofilm activity against Pseudomonas aeruginosa PAO1 assessed as inhibition of biofilm formation at 32 ug/ml incubated for 8 hrs by crystal violet staining based assay relative to control; format: functional; parameters: scale not given: the % may be the effect or the level left; conditions: dose 32 µg/ml
compound,measurement,setting,value
CCCCCCCCC(=O)NNC(=O)Cn1c(=O)oc2ccccc21,Activity,Pseudomonas aeruginosa [1],6.34%
O=C(OCCN1CCOCC1)c1cccc([N+](=O)[O-])c1,inhibition,[2],92.3%
O=C(CCN1CCOCC1)Oc1cccc([N+](=O)[O-])c1,inhibition,[2],78.8%
CCCCCCCCCc1nc2cc(Cl)ccc2c(=O)n1N,Activity,Pseudomonas aeruginosa [3],46%
O=c1c2cccc(Cl)c2ncn1CC(O)COc1ccccc1 (stereo not given),IC50,[4],0.6 µM
O=c1c2cc([N+](=O)[O-])ccc2ncn1CC(O)COc1ccccc1 (stereo not given),IC50,[4],0.6 µM
CCCCCCSSc1nc2cccc(Cl)c2c(=O)n1-c1ccccc1,Activity,Pseudomonas aeruginosa [3],94%
O=C(CCCCCOc1ccc(C(F)(F)F)cc1)NN1C(=O)CN(c2ccccc2O)C1=O,MIC,Escherichia coli,> 512 mg/L
same,Activity,Pseudomonas aeruginosa [5],38.62%
same,MIC,Pseudomonas aeruginosa [6],> 512 mg/L
same,MIC,Bacillus pumilus,> 512 mg/L
same,MIC,Staphylococcus aureus,> 512 mg/L
same,MIC,Bacillus subtilis,> 512 mg/L
Clc1ccc2c(NCCCCCCNCCc3ccccc3)ccnc2c1,MIC,Pseudomonas aeruginosa [7],> 2 µM
O=C(CSc1nc2ccccc2s1)c1ccccc1,MIC,Pseudomonas aeruginosa [8],> 128 mg/L
CCCCSSc1nc2ccccc2c(=O)n1-c1ccccc1,Activity,Pseudomonas aeruginosa [3],94%
CC(C)NCCCCCCCCNc1ccnc2cc(Cl)ccc12,MIC,Pseudomonas aeruginosa [7],> 2 µM
O=C(CSc1ccc2ccccc2n1)c1ccc2c(c1)OCCO2,MIC,Pseudomonas aeruginosa [8],> 128 mg/L
O=C(CC1CCC(F)CC1)Oc1cccc([N+](=O)[O-])c1 (stereo not given),inhibition,[2],50.2%
O=C(CCCCCOc1cccc(C(F)(F)F)c1)NNC(=O)Cn1c(=O)oc2ccccc21,Activity,Pseudomonas aeruginosa [1],2.53%
[O-][S+](Cc1ccc2c(O)cccc2c1)c1nnc(-c2ccccc2)o1 (stereo not given),Activity,Pseudomonas aeruginosa [9],40.88%
O=C(CN1CCSCC1)Oc1cccc([N+](=O)[O-])c1,inhibition,[2],90.2%
COc1cc(C[S+]([O-])c2nnc(-c3ccccc3)o2)cc(OC)c1 (stereo not given),Activity,Pseudomonas aeruginosa [9],21.94%
O=c1c2cc(C(F)(F)F)ccc2ncn1CC(O)COc1ccccc1 (stereo not given),IC50,[4],0.6 µM
CC(C)(C)c1cccc(OC(=O)CN2CCOCC2)c1,inhibition,[2],50.2%
O=[N+]([O-])c1ccc(C[S+]([O-])c2nnn(-c3ccccc3)n2)cc1 (stereo not given),Activity,Pseudomonas aeruginosa [9],1.64%
O=C(CCCCCOc1ccc(C(F)(F)F)cc1)NNC(=O)Cn1c(=O)oc2ccccc21,Activity,Pseudomonas aeruginosa [1],2.53%
CCCCCCC1=NC(Cn2cnc3cc(Cl)ccc3c2=O)CS1 (stereo not given),Activity,Pseudomonas aeruginosa [3],46%
CCCCCCSSc1nc2ccccc2c(=O)[nH]1,Activity,Pseudomonas aeruginosa [3],94%
O=C(Oc1cccc([N+](=O)[O-])c1)C(=O)N1CCOCC1,inhibition,[2],50.2%
[O-][S+](Cc1ccccc1Cl)c1nnc(-c2ccccc2)o1 (stereo not given),Activity,Pseudomonas aeruginosa [9],40.6%
O=C(CSc1nc2ccccc2s1)c1ccc(Cl)c(Cl)c1,MIC,Pseudomonas aeruginosa [8],> 128 mg/L
Clc1ccc2c(NCCCCCCCCNCc3ccccc3)ccnc2c1,MIC,Pseudomonas aeruginosa [7],> 2 µM
CCCCCCCCSSc1nc2ccccc2c(=O)n1-c1ccccc1,Activity,Pseudomonas aeruginosa [3],94%
COc1cc(C(=O)CSc2ccc3ccccc3n2)ccc1O,MIC,Pseudomonas aeruginosa [8],> 128 mg/L
Clc1ccc2c(NCCCCCCCCNCc3ccccc3Cl)ccnc2c1,MIC,Pseudomonas aeruginosa [7],> 2 µM
Clc1ccc(CNCCCCCCCCNc2ccnc3cc(Cl)ccc23)cc1,MIC,Pseudomonas aeruginosa [7],> 2 µM
COc1ccc(C(=O)CSc2ccc3ccccc3n2)c(OC)c1,MIC,Pseudomonas aeruginosa [8],> 128 mg/L
COc1ccccc1C(=O)CSc1ccc2ccccc2n1,MIC,Pseudomonas aeruginosa [8],> 128 mg/L
[O-][S+](Cc1ccc2c(O)cccc2c1)c1nnn(-c2ccccc2)n1 (stereo not given),Activity,Pseudomonas aeruginosa [9],1.64%
O=C(CSC1=NC2C=C([N+](=O)[O-])C=CC2=N1)Cc1ccc(Br)cc1 (stereo not given),MIC,Pseudomonas aeruginosa [8],> 512 mg/L
CCCCSSc1nc2ccccc2c(=O)n1C1CC1,Activity,Pseudomonas aeruginosa [3],94%
C=CCSSc1nc2ccccc2c(=O)n1-c1ccccc1,Activity,Pseudomonas aeruginosa [3],94%
[O-][S+](Cc1ccc(C(F)(F)F)cc1)c1nnc(-c2ccccc2)o1 (stereo not given),Activity,Pseudomonas aeruginosa [9],21.94%
Cc1ccc(C[S+]([O-])c2nnc(-c3ccccc3)o2)cc1 (stereo not given),Activity,Pseudomonas aeruginosa [9],40.6%
[O-][S+](Cc1ccc(Br)cc1)c1nnn(-c2ccccc2)n1 (stereo not given),Activity,Pseudomonas aeruginosa [9],1.64%
O=C(CCCCCOc1ccc(Cl)cc1)NN1C(=O)CN(c2ccccc2O)C1=O,MIC,Escherichia coli,> 512 mg/L
same,MIC,Pseudomonas aeruginosa [6],> 512 mg/L
same,MIC,Bacillus pumilus,> 512 mg/L
same,Activity,Pseudomonas aeruginosa [1],2.76%
same,MIC,Staphylococcus aureus,> 512 mg/L
same,MIC,Bacillus subtilis,> 512 mg/L
CCCCCCSSc1nc2ccccc2c(=O)n1C1CC1,Activity,Pseudomonas aeruginosa [3],94%
O=C(CSc1ccc2ccccc2n1)c1ccccc1,MIC,Pseudomonas aeruginosa [8],> 128 mg/L
CCCCCCSSc1nc2ccc(Cl)cc2c(=O)n1-c1ccccc1,Activity,Pseudomonas aeruginosa [3],94%
O=c1c2cc(Cl)c(Cl)cc2ncn1CC(O)COc1ccccc1 (stereo not given),IC50,[4],0.6 µM
O=c1c2c(Cl)cccc2ncn1CC(O)COc1ccccc1 (stereo not given),IC50,[4],0.6 µM
O=[N+]([O-])c1ccc(C[S+]([O-])c2nnc(-c3ccccc3)o2)cc1 (stereo not given),Activity,Pseudomonas aeruginosa [9],40.6%
O=C(CN1CCOCC1)Oc1ccc([N+](=O)[O-])cc1,inhibition,[2],82.3%
[O-][S+](Cc1ccc(Br)cc1)c1nnc(-c2ccccc2)o1 (stereo not given),Activity,Pseudomonas aeruginosa [9],21.94%
[O-][S+](Cc1cccc(Cl)c1)c1nnc(-c2ccccc2)o1 (stereo not given),Activity,Pseudomonas aeruginosa [9],40.6%
CCCCCCCCSSc1nc2ccc(Cl)cc2c(=O)n1-c1ccccc1,Activity,Pseudomonas aeruginosa [3],94%
N#CCc1ccc(NCC(O)Cn2cnc3ccc(Cl)cc3c2=O)cc1 (stereo not given),IC50,[4],3.2 µM
C=CCSSc1nc2ccc(Cl)cc2c(=O)n1-c1ccccc1,Activity,Pseudomonas aeruginosa [3],94%
CCCCCCCCSSc1nc2ccccc2c(=O)n1C1CC1,Activity,Pseudomonas aeruginosa [3],94%
Cc1ccc(C[S+]([O-])c2nnn(-c3ccccc3)n2)cc1 (stereo not given),Activity,Pseudomonas aeruginosa [9],1.64%
Clc1ccc2c(NCCCCCCCCNCCc3ccccc3)ccnc2c1,MIC,Pseudomonas aeruginosa [7],> 2 µM
[O-][S+](Cc1ccc(C(F)(F)F)cc1)c1nnn(-c2ccccc2)n1 (stereo not given),Activity,Pseudomonas aeruginosa [9],1.64%
[O-][S+](Cc1ccccc1)c1nnc(-c2ccccc2)o1 (stereo not given),Activity,Pseudomonas aeruginosa [9],40.6%
Fc1ccc(CNCCCCCCCCNc2ccnc3cc(Cl)ccc23)cc1,MIC,Pseudomonas aeruginosa [7],> 2 µM
O=c1c2cc(Cl)cc(Cl)c2ncn1CC(O)COc1ccccc1 (stereo not given),IC50,[4],0.6 µM
O=C(CCCCCOc1cccc(C(F)(F)F)c1)NN1C(=O)CN(c2ccccc2O)C1=O,MIC,Escherichia coli,> 512 mg/L
same,Activity,Pseudomonas aeruginosa [5],38.62%
same,MIC,Bacillus pumilus,> 512 mg/L
same,MIC,Staphylococcus aureus,> 512 mg/L
same,MIC,Bacillus subtilis,> 512 mg/L
CN1CCN(CC(=O)Oc2cccc([N+](=O)[O-])c2)CC1,inhibition,[2],78.8%
Cc1ccc(OCCCCCC(=O)NNC(=O)Cn2c(=O)oc3ccccc32)cc1,Activity,Pseudomonas aeruginosa [1],2.53%
CCCCCCCCCCCC(=O)NN1C(=O)CN(c2ccccc2O)C1=O,MIC,Escherichia coli,> 512 mg/L
same,MIC,Pseudomonas aeruginosa [6],> 512 mg/L
same,MIC,Bacillus pumilus,> 512 mg/L
same,MIC,Staphylococcus aureus,> 512 mg/L
same,MIC,Bacillus subtilis,> 512 mg/L
O=c1c2cc(Br)ccc2ncn1CC(O)COc1ccccc1 (stereo not given),IC50,[4],0.8 µM
Clc1ccc2c(NCCCCCCCCCCCCNCc3ccccc3)ccnc2c1,MIC,Pseudomonas aeruginosa [7],> 2 µM
O=C(CN1CCOCC1)Oc1cccc([N+](=O)[O-])c1,inhibition,[2],61.6%
CCCCSSc1nc2ccccc2c(=O)[nH]1,Activity,Pseudomonas aeruginosa [3],94%
CN(C)CCCCCCCCNc1ccnc2cc(Cl)ccc12,MIC,Pseudomonas aeruginosa [7],> 2 µM
[O-][S+](Cc1cccc(Cl)c1)c1nnn(-c2ccccc2)n1 (stereo not given),Activity,Pseudomonas aeruginosa [9],1.64%
CCCCSSc1nc2cccc(Cl)c2c(=O)n1-c1ccccc1,Activity,Pseudomonas aeruginosa [3],94%
Clc1ccc2c(NCCCCCCNCc3ccccc3)ccnc2c1,MIC,Pseudomonas aeruginosa [7],> 2 µM
[O-][S+](Cc1ccc(Cl)cc1)c1nnn(-c2ccccc2)n1 (stereo not given),Activity,Pseudomonas aeruginosa [9],1.64%
NCCCCCCCCCCCCNc1ccnc2cc(Cl)ccc12,MIC,Pseudomonas aeruginosa [7],> 2 µM
CCCCSSc1nc2ccc(Cl)cc2c(=O)n1-c1ccccc1,Activity,Pseudomonas aeruginosa [3],94%
NCCCCCCCCCCCCNc1ccnc2cc(C(F)(F)F)ccc12,MIC,Pseudomonas aeruginosa [7],> 2 µM
[O-][S+](Cc1ccc(Cl)cc1)c1nc2ccccc2s1 (stereo not given),Activity,Pseudomonas aeruginosa [9],40.6%
Fc1cccc(CNCCCCCCCCNc2ccnc3cc(Cl)ccc23)c1,MIC,Pseudomonas aeruginosa [7],> 2 µM
O=C(CN1CCOCC1)Oc1ccccc1[N+](=O)[O-],inhibition,[2],50.2%
COc1cccc(C[S+]([O-])c2nnc(-c3ccccc3)o2)c1 (stereo not given),Activity,Pseudomonas aeruginosa [9],21.94%
[O-][S+](Cc1ccc(F)cc1)c1nnn(-c2ccccc2)n1 (stereo not given),Activity,Pseudomonas aeruginosa [9],1.64%
C=CCSSc1nc2ccccc2s1,Activity,Pseudomonas aeruginosa [3],46%
N#CCc1ccc(OCC(O)Cn2cnc3ccc(Cl)cc3c2=O)cc1 (stereo not given),IC50,[4],3.2 µM
COc1cccc(C[S+]([O-])c2nnn(-c3ccccc3)n2)c1 (stereo not given),Activity,Pseudomonas aeruginosa [9],1.64%
[O-][S+](Cc1ccccc1Cl)c1nnn(-c2ccccc2)n1 (stereo not given),Activity,Pseudomonas aeruginosa [9],1.64%
O=C(CCCCCOc1cccc(F)c1)NN1C(=O)CN(c2ccccc2O)C1=O,MIC,Escherichia coli,> 512 mg/L
same,MIC,Pseudomonas aeruginosa [6],> 512 mg/L
same,MIC,Bacillus pumilus,> 512 mg/L
same,Activity,Pseudomonas aeruginosa [1],2.76%
same,MIC,Staphylococcus aureus,> 512 mg/L
same,MIC,Bacillus subtilis,> 512 mg/L
CCCCCCCCSSc1nc2cccc(Cl)c2c(=O)n1-c1ccccc1,Activity,Pseudomonas aeruginosa [3],94%
[N-]=[N+]=Nc1ccc(CNCCCCCCCCNc2ccnc3cc(Cl)ccc23)cc1,MIC,Pseudomonas aeruginosa [7],> 2 µM
Clc1ccc(SSc2nc3ccccc3s2)cc1,Activity,Pseudomonas aeruginosa [9],40.6%
CCCCCCSSc1nc2ccccc2c(=O)n1-c1ccccc1,Activity,Pseudomonas aeruginosa [3],94%
[O-][S+](Cc1ccc(F)cc1)c1nnc(-c2ccccc2)o1 (stereo not given),Activity,Pseudomonas aeruginosa [9],23.17%
COc1ccc(C[S+]([O-])c2nnc(-c3ccccc3)o2)cc1 (stereo not given),Activity,Pseudomonas aeruginosa [9],21.94%
Clc1cccc(CNCCCCCCCCNc2ccnc3cc(Cl)ccc23)c1,MIC,Pseudomonas aeruginosa [7],> 2 µM
O=c1c2ccc(Cl)cc2ncn1CC(O)COc1ccccc1 (stereo not given),IC50,[4],0.6 µM
[O-][S+](Cc1ccccc1)c1nnn(-c2ccccc2)n1 (stereo not given),Activity,Pseudomonas aeruginosa [9],1.64%
O=C(CCCCCOc1ccc(F)cc1)NNC(=O)Cn1c(=O)oc2ccccc21,Activity,Pseudomonas aeruginosa [1],2.53%
